Experiments:
[1] = system: Rb-proficient (MDAMB231) and Rb-deficient (BT549 and MDAMB436) TNBC cells; test: CV proliferation assay, TNBC cells (statements across lines); format: cell-based; details: Rb-proficient and Rb-deficient TNBC cells, CV assay
Description: (§1) Cell proliferation rates were determined using crystal violet assays. One thousand cells per well were plated in 96 well tissue culture plates and treated the following day with a bifunctional compound or control for 7 days in replicates of 8. Cells were fixed with 25% glutaraldehyde for 10 minutes with shaking, washed 5 times with distilled water, stained with a 1% crystal violet solution (solubilized in 25% methanol) for 10 minutes, washed again 5 times and allowed to dry. De-staining was performed using […] sodium citrate in 50% ethanol followed by quantification using a 96 well spectrophotometer set at an absorbance of 550 nm.
as §1, with “using CV” for “using crystal violet”, “assays. Two” for “assays. One”, “thousand (2000) or 4000” for “thousand”, “for 6” for “for 7”, “of 6.” for “of 8.”

[2] = system: MDAH-2774 and KURAMOCHI ovarian cancer cells; test: CV proliferation assay, ovarian cancer cells (statements across lines); format: cell-based; details: MDAH-2774 and KURAMOCHI cells
Description: as §1
Based on the potent anti-proliferative activity of ENDX-PROTACs TC-Pr-006, TC-Pr-007, TC-Pr -008, and TC-Pr -009 in TNBC cells, the efficacy of these compounds for inhibiting the growth of ovarian cancer cells was tested. This analysis utilized KURAMOCHI cells, which represent the high-grade serous subtype (the most malignant form that accounts for 70% of all ovarian cancers and associates with poor clinical outcome) and MDAH-2774 cells, which represent endometrioid ovarian cancer and accounts for 20% of all ovarian cancer. PKCβ1 was confirmed to be expressed in both ovarian cancer cell line models, with MDAH-2774 cells expressing higher amounts of PKCβ1 compared to KURAMOCHI cells (FIG. 5A).

In the case of `CC/C(=C(\c1ccc(O)cc1)c1ccc(OCCNC)cc1)c1ccccc1` [ENDX, endoxifen, reference compound], the “concentration inhibiting growth of TNBC cells” value [1] is reported as > 5 µM and the “concentration inhibiting growth of ovarian cancer cells” value [2] is reported as 10 µM.

— US20240058318A1, “DEGRADING PKCB1 TO TREAT CANCER” (Mayo Foundation for Medical Education and Research, priority 2020, published 2024)
